Source: patent US20230391779A1, “BICYCLIC COMPOUNDS, COMPOSITIONS AND USE THEREOF” (Betta Pharmaceuticals Co., Ltd., priority 2020, published 2023)

Tests used:
[1] = Pharmacokinetics in plasma following PO cassette dosing in mice; assay type: in vivo; details: mouse, Balb/C female mice, 5 mg/kg; for AUC: blood collection 30 min, 2 h, 4 h
Experimental: Adult Balb/C female mice (6-7 weeks, Vitalriver) were received to cassette dosing of the test compounds with 10-20% DMSO, 10% Solutol (Kolliphor HS 15, Beijing Fengli Jingqiu Pharmaceutical Co., Ltd.) and 80-70% H2O as excipients. The mice (n=3) were giving oral administration (intragastric administration) at a dose of 5 mg/kg. Time of blood collection: 30 min, 2 h, 4 h. About 0.1 mL of whole blood was collected from retro-orbital venous plexus, and placed into tubes that contained EDTA as an anticoagulant. The samples were centrifuged at 4° C. and 4000 rpm for 10 min. The plasma was transferred into centrifuge tubes, and stored at −20° C. before being analyzed. Concentrations of test compounds in the plasma samples were analyzed with liquid chromatography-tandem mass spectrometry (LC-MS/MS). Plasma concentration-time data of individual animals was analyzed using Microsoft Excel 2010. Non-compartmental model was introduced in concentration analysis. The pharmacokinetic parameters of the test compounds were calculated using WinNonlin (version 4.1; Pharsight) software.

TEAD-YAP/TAZ interaction = experiment: CTGF ELISA assay; assay type: cell-based, human; details: CTGF in culture supernatant of NCI-H2052 cells, 24 hours with compound
Outline: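 NCI-H2052 cells treated 24 h at 37 °C with compound (10000–0.61 nM, 0.5% DMSO); secreted CTGF in supernatant measured by sandwich ELISA (OD 450 nm) against a standard curve. EC50 fitted from CTGF concentration-response curves.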

SMILES: C=C(F)C(=O)N1CC(n2nc(C#Cc3ccccc3)c3cccnc32)C1 [compound 307]
- Cmax [1]: 2710 ng/mL
- AUC [1]: 8480 ng·h/mL

SMILES: C=C(F)C(=O)N1CC(n2nc(/C=C/C3CCCCC3)c3cccnc32)C1 [compound 331, (E)-1-(3-(3-(2-cyclohexylvinyl)-1H-pyrazolo[3,4-b]pyridin-1-yl)azetidin-1-yl)-2-fluoroprop-2-en-1-one]
- Cmax [1]: 1760 ng/mL
- AUC [1]: 5730 ng·h/mL

SMILES: C=CC(=O)N1CCC(n2nc(-c3ccc(C(F)(F)F)nc3)c3cccc(C(=O)NC4CC(F)(F)C4)c32)C1 (stereo not shown) [Compound 104, 1-(1-acryloylpyrrolidin-3-yl)-N-(3,3-difluorocyclobutyl)-3-(6-(trifluoromethyl)pyridin-3-yl)-1H-indazole-7-carboxamide]
- EC50 (TEAD-YAP/TAZ interaction): 14 nM
- Cmax [1]: 1520 ng/mL
- AUC [1]: 5060 ng·h/mL

SMILES: C=C(F)C(=O)N1CC(n2c(=O)n(-c3ccc(C(F)(F)F)cc3)c3ccc(C)nc32)C1 [Compound 242, 3-(1-(2-fluoroacryloyl)azetidin-3-yl)-5-methyl-1-(4-(trifluoromethyl)phenyl)-1,3-dihydro-2H-imidazo[4,5-b]pyridin-2-one]
- EC50 (TEAD-YAP/TAZ interaction): 10 nM
- Cmax [1]: 1770 ng/mL
- AUC [1]: 5410 ng·h/mL

SMILES: C=C(F)C(=O)N1CC(n2nc(/C=C/c3ccccc3)c3cccnc32)C1 [compound 308]
- Cmax [1]: 2610 ng/mL
- AUC [1]: 9110 ng·h/mL

SMILES: C=C(F)C(=O)N1CC(n2nc(C#CC3CCCC3)c3cccnc32)C1 [compound 312, 1-(3-(3-(cyclopentylethynyl)-1H-pyrazolo[3,4-b]pyridin-1-yl)azetidin-1-yl)-2-fluoroprop-2-en-1-one]
- Cmax [1]: 2080 ng/mL
- AUC [1]: 5790 ng·h/mL

SMILES: C=C(F)C(=O)N1CC(n2nc(-c3ccc(S(F)(F)(F)(F)F)cc3)c3cccnc32)C1 [Compound 173, 2-fluoro-1-(3-(3-(4-(pentafluoro-16-sulfanyl)phenyl)-1H-pyrazolo-[3,4-b]pyridin-1-yl)azetidin-1-yl)prop-2-en-1-one]
- EC50 (TEAD-YAP/TAZ interaction): 48 nM
- Cmax [1]: 1670 ng/mL
- AUC [1]: 5960 ng·h/mL

SMILES: C=CC(=O)N1CCC(n2nc(-c3ccc(C(F)(F)F)cn3)c3ccccc32)C1 (stereo not shown) [Compound 58, 1-(3-(3-(5-(trifluoromethyl)pyr-idin-2-yl)-1H-indazol-1-yl)pyrrol-idin-1-yl)prop-2-en-1-one]
- EC50 (TEAD-YAP/TAZ interaction): 17 nM
- Cmax [1]: 1580 ng/mL
- AUC [1]: 4470 ng·h/mL

SMILES: C=C(F)C(=O)N1CC(n2nc(-c3ccc(C(F)(F)F)cc3F)c3cccnc32)C1 [Compound 128, 2-fluoro-1-(3-(3-(2-fluoro-4-(trifluoromethyl)phenyl)-1H-pyrazolo[3,4-b]pyridin-1-yl)-azetidin-1-yl)prop-2-en-1-one]
- EC50 (TEAD-YAP/TAZ interaction): 9 nM
- Cmax [1]: 5270 ng/mL
- AUC [1]: 19300 ng·h/mL

SMILES: C=CC(=O)NC1CN(c2nc(-c3ccc(C(F)(F)F)cc3)nc3cccnc23)C1 [compound 281, N-(1-(2-(4-(trifluoromethyl)phenyl)pyrido[3,2-d]pyrimidin-4-yl)azetidin-3-yl)acrylamide]
- Cmax [1]: 1190 ng/mL
- AUC [1]: 4200 ng·h/mL

SMILES: C=C(F)C(=O)N1CC(n2nc(-c3ccc(OC(F)(F)F)cc3)c3cccnc32)C1 [Compound 172, 2-fluoro-1-(3-(3-(4-(trifluoro-methoxy)phenyl)-1H-pyrazolo-[3,4-b]pyridin-1-yl)azetidin-1-yl)prop-2-en-1-one]
- EC50 (TEAD-YAP/TAZ interaction): 0.4 nM
- Cmax [1]: 1650 ng/mL
- AUC [1]: 1650 ng·h/mL

SMILES: C=CC(=O)N1CCC(n2nc(-c3ccc(C(F)(F)F)cc3)c3cccnc32)C1 (stereo not shown) [Compound 21, 1-(3-(3-(4-(trifluoromethyl)phen-yl)-1H-pyrazolo[3,4-b]pyridin-1-yl)pyrrolidin-1-yl)prop-2-en-1-one]
- EC50 (TEAD-YAP/TAZ interaction): 11 nM
- Cmax [1]: 1060 ng/mL
- AUC [1]: 3150 ng·h/mL

SMILES: C=C(F)C(=O)N1CC(n2c(=O)n(-c3ccc(C(F)(F)F)cc3)c3ccccc32)C1 [Compound 229, 1-(1-(2 fluoroacryloyl)azetidin-3 yl)-3-(4-(trifluoromethyl)phenyl)-1,3-dihydro-2H-benzo[d]imidazol-2-one]
- EC50 (TEAD-YAP/TAZ interaction): 20 nM
- Cmax [1]: 1040 ng/mL
- AUC [1]: 3840 ng·h/mL

SMILES: C=C(F)C(=O)NC1CN(c2nc(-c3ccc(C(F)(F)F)cc3)nc3ccccc23)C1 [compound 269, 2-fluoro-N-(1-(2-(4-(trifluoromethyl)phenyl)quinazolin-4-yl)azetidin-3-yl)acrylamide]
- Cmax [1]: 1250 ng/mL
- AUC [1]: 4370 ng·h/mL

SMILES: C=C(F)C(=O)N1CC(n2c(=O)n(-c3ccc(C(F)(F)F)nc3)c3ccc(C)nc32)C1 [Compound 243, 3-(1-(2-fluoroacryloyl)azetidin-3-yl)-5-methyl-1-(6-(trifluoromethyl)pyridin-3-yl)-1,3-dihydro-2H-imidazo[4,5-b]pyridin-2-one]
- EC50 (TEAD-YAP/TAZ interaction): 28 nM
- Cmax [1]: 1210 ng/mL
- AUC [1]: 4010 ng·h/mL

SMILES: C=CC(=O)N1CCC(n2nc(-c3ccc(C(F)(F)F)cc3)c3ccc(C)cc32)C1 (stereo not shown) [Compound 47, 1-(3-(6-methyl-3-(4-(trifluoro-methyl)phenyl)-1H-indazol-1-yl)-pyrrolidin-1-yl)prop-2-en-1-one]
- EC50 (TEAD-YAP/TAZ interaction): 15 nM
- Cmax [1]: 721 ng/mL
- AUC [1]: 2510 ng·h/mL

SMILES: C=CC(=O)N1CCC(n2nc(-c3ccc(C(F)(F)F)cc3)c3cc(Cl)cnc32)C1 (stereo not shown) [Compound 108, 1-(3-(5-chloro-3-(4-(trifluoro-methyl)phenyl)-1H-pyrazolo[3,4-b]pyridin-1-yl)pyrrolidin-1-yl)-prop-2-en-1-one]
- EC50 (TEAD-YAP/TAZ interaction): 12 nM
- Cmax [1]: 1200 ng/mL
- AUC [1]: 3500 ng·h/mL

SMILES: C=C(F)C(=O)N1CC(n2nc(-c3ccc(C(F)(F)F)nc3C)c3cccnc32)C1 [Compound 182, 2-fluoro-1-(3-(3-(2-methyl-6-(trifluoromethyl)pyridin-3-yl)-1H-pyrazolo[3,4-b]pyridin-1-yl)azetidin-1-yl)prop-2-en-1-one]
- EC50 (TEAD-YAP/TAZ interaction): 0.394 nM
- Cmax [1]: 2160 ng/mL
- AUC [1]: 7410 ng·h/mL

SMILES: C=C(F)C(=O)N1CC(n2nc(-c3ccc(C(F)(F)F)cc3)c3ncn(CC)c(=O)c32)C1 [Compound 218, 6-ethyl-1-(1-(2-fluoroacryloyl)-azetidin-3-yl)-3-(4-(trifluoro-methyl)phenyl)-1,6-dihydro-7H-pyrazolo[4,3-d]pyrimidin-7-one]
- EC50 (TEAD-YAP/TAZ interaction): 0.7 nM
- Cmax [1]: 1190 ng/mL
- AUC [1]: 3780 ng·h/mL

SMILES: C=CC(=O)N1CCC(n2nc(-c3ccc(C(F)(F)F)cc3)c3nc(OC)ccc32)C1 (stereo not shown) [Compound 89, 1-(3-(5-methoxy-3-(4-(trifluoro-methyl)phenyl)-1H-pyrazolo[4,3-b]pyridin-1-yl)pyrrolidin-1-yl)-prop-2-en-1-one]
- EC50 (TEAD-YAP/TAZ interaction): 12 nM
- Cmax [1]: 1970 ng/mL
- AUC [1]: 6480 ng·h/mL

SMILES: C=C(F)C(=O)N1CC(n2c(=O)n(-c3ccc(C(F)(F)F)nc3)c3nccnc32)C1 [Compound 241, 1-(1-(2-fluoroacryloyl)azetidin-3-yl)-3-(6-(trifluoromethyl)pyridin-3-yl)-1,3-dihydro-2H-imidazo[4,5-b]pyrazin-2-one]
- Cmax [1]: 2530 ng/mL
- AUC [1]: 8260 ng·h/mL

SMILES: C=C(F)C(=O)N1CC(n2nc(-c3cnc(C(F)(F)F)nc3)c3cccnc32)C1 [Compound 183, 2-fluoro-1-(3-(3-(2-(trifluorometh-yl)pyrimidin-5-yl)-1H-pyrazolo-[3,4-b]pyridin-1-yl)azetidin-1-yl)-prop-2-en-1-one]
- Cmax [1]: 3680 ng/mL
- AUC [1]: 12800 ng·h/mL

SMILES: C=C(F)C(=O)N1CC(n2nc(-c3ccc(C(F)(F)F)cc3F)c3ncccc32)C1 [Compound 130, 2-fluoro-1-(3-(3-(2-fluoro-4-(trifluoromethyl)phenyl)-1H-pyrazolo[4,3-b]pyridin-1-yl)-azetidin-1-yl)prop-2-en-1-one]
- EC50 (TEAD-YAP/TAZ interaction): 4 nM
- Cmax [1]: 1960 ng/mL
- AUC [1]: 7110 ng·h/mL

SMILES: C=CC(=O)N1CCC(n2nc(-c3ccc(C(F)(F)F)cc3)c3ncccc32)C1 (stereo not shown) [Compound 26, 1-(3-(3-(4-(trifluoromethyl)phen-yl)-1H-pyrazolo[4,3-b]pyridin-1-yl)pyrrolidin-1-yl)prop-2-en-1-one]
- EC50 (TEAD-YAP/TAZ interaction): 3.6 nM
- Cmax [1]: 1420 ng/mL
- AUC [1]: 4640 ng·h/mL

SMILES: C=CC(=O)NC1CN(c2nc(-c3ccc(C(F)(F)F)cc3)nc3ccccc23)C1 [compound 268, N-(1-(2-(4-(trifluoromethyl)phenyl)quinazolin-4-yl)azetidin-3-yl)acrylamide]
- Cmax [1]: 1690 ng/mL
- AUC [1]: 6100 ng·h/mL

SMILES: C=CC(=O)NC1CN(c2nc(-c3ccc(C(F)(F)F)cc3)n3ccccc23)C1 [Compound 13, N-(1-(3-(4-(trifluoromethyl)phenyl)imidazo[1,5-a]pyridin-1 yl)azetidin-3 yl)acrylamide]
- EC50 (TEAD-YAP/TAZ interaction): 20 nM

SMILES: C=CC(=O)N1CC(n2nc(-c3ccc(C(F)(F)F)cc3)c3ncn(C)c(=O)c32)C1 [Compound 79, 1-(1-acryloylazetidin-3-yl)-6-methyl-3-(4-(trifluoromethyl)-phenyl)-1,6-dihydro-7H-pyrazolo[4,3-d]pyrimidin-7-one]
- EC50 (TEAD-YAP/TAZ interaction): 7.2 nM

SMILES: C=CC(=O)N1CCC(n2nc(-c3ccc(C(F)(F)F)nc3)c3cccc(C(=O)NC4COC4)c32)C1 (stereo not shown) [Compound 101, 1-(1-acryloylpyrrolidin-3-yl)-N-(oxetan-3-yl)-3-(6-(trifluorometh-yl)pyridin-3-yl)-1H-indazole-7-carboxamide]
- EC50 (TEAD-YAP/TAZ interaction): 97 nM

SMILES: C=CC(=O)N1CCC(n2nc(-c3ccc(C(F)(F)F)cc3)c3cc(C)cnc32)C1 (stereo not shown) [Compound 96, 1-(3-(5-methyl-3-(4-(trifluoro-methyl)phenyl)-1H-pyrazolo[3,4-b]pyridin-1-yl)pyrrolidin-1-yl)-prop-2-en-1-one]
- EC50 (TEAD-YAP/TAZ interaction): 4 nM
